Key:
[1] = test system: Beet Armyworm (Spodoptera exigua) ("BAW"), second instar larvae; experiment: Bioassay on beet armyworm (BAW), 128-well diet tray assay; format: in vivo; conditions: for pest or weed control at 50 µg/cm2: Spodoptera exigua, read-out: BAW rating; for BAW rating: Table ABC, species BAW, C = not tested, D = no activity noticed
Method in brief: (§1)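 Mortality (%) is scored well by well after five to seven days at 25° C. on a 14:10 light:dark regime. The value given is the mean of eight wells.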

[2] = test system: Cabbage Looper (Trichoplusia ni) ("CL"), second instar larvae; experiment: Bioassay on cabbage looper (CL), 128-well diet tray assay; format: in vivo; conditions: for pest or weed control at 50 µg/cm2: Trichoplusia ni, read-out: CL rating; for CL rating: Table ABC, species CL, C = not tested, D = no activity noticed
Method in brief: as §1

Compound	pest or weed control at 50 µg/cm2 [1] [%]	pest or weed control at 50 µg/cm2 [2] [%]	BAW rating [1]	CL rating [2]
Cc1ccc(OCCC(F)(F)F)c(N2C(=O)CS/C2=N\C(=O)Nc2ccc(-c3ncn(-c4ccc(S(=O)(=O)C(F)(F)F)cc4)n3)cc2C)c1 [Compound J373, (Z)-1-(3-(5-Methyl-2-(3,3,3-trifluoropropoxy)phenyl)-4-oxothiazolidin-2-ylidene)-3-(2-methyl-4-(1-(4-((trifluoromethyl)sulfonyl)phenyl)-1H-1,2,4-triazol-3-yl)phenyl)urea]	50 to 100	50 to 100		
CCCc1ccc(N(C)C)cc1N1C(=O)CS/C1=N\C(=O)Nc1ccc(-c2ncn(-c3ccc(S(=O)(=O)C(F)(F)F)cc3)n2)cc1C [Compound J374, (Z)-1-(3-(5-(Dimethylamino)-2-propylphenyl)-4-oxothiazolidin-2-ylidene)-3-(2-methyl-4-(1-(4-((trifluoromethyl)sulfonyl)phenyl)-1H-1,2,4-triazol-3-yl)phenyl)urea]	50 to 100	50 to 100		
Cc1cc(-c2ncn(-c3ccc(S(=O)(=O)C(F)(F)F)cc3)n2)ccc1NC(=O)/N=C1\SCC(=O)N1c1cc(N(C)C)c(F)cc1C(C)C [Compound J375, (Z)-1-(3-(5-(Dimethylamino)-4-fluoro-2-isopropylphenyl)-4-oxothiazolidin-2-ylidene)-3-(2-methyl-4-(1-(4-((trifluoromethyl)sulfonyl)phenyl)-1H-1,2,4-triazol-3-yl)phenyl)urea]	50 to 100	50 to 100		
Cc1cc(-c2ncn(-c3ccc(S(=O)(=O)C(F)(F)F)cc3)n2)ccc1NC(=O)/N=C1\SCC(=O)N1c1cc(C#N)ccc1OCCC(F)(F)F [Compound J376, (Z)-1-(3-(5-Cyano-2-(3,3,3-trifluoropropoxy)phenyl)-4-oxothiazolidin-2-ylidene)-3-(2-methyl-4-(1-(4-((trifluoromethyl)sulfonyl)phenyl)-1H-1,2,4-triazol-3-yl)phenyl)urea]	50 to 100	50 to 100		
COC(c1ccc(C)cc1N1C(=O)CS/C1=N\C(=O)Nc1ccc(-c2ncn(-c3ccc(C(F)(F)F)cn3)n2)cc1F)C(F)(F)F (stereo not drawn) [Compound J377]			A (50-100)	A (50-100)
CCOC(C)c1ccc(C)cc1N1C(=O)CS/C1=N\C(=O)Nc1ccc(-c2ncn(-c3ccc(C(F)(F)F)cn3)n2)cc1F (stereo not drawn) [Compound J378]			A (50-100)	A (50-100)
CC(C)c1ccc(N(C)C)cc1N1C(=O)CS/C1=N\C(=O)Nc1ccc(-c2ncn(-c3ccc([S+]([O-])C(F)(F)F)cc3)n2)cc1F (stereo not drawn) [Compound J379, (Z)-1-(3-(5-(Dimethylamino)-2-isopropylphenyl)-4-oxothiazolidin-2-ylidene)-3-(2-fluoro-4-(1-(4-((trifluoromethyl)sulfinyl)phenyl)-1H-1,2,4-triazol-3-yl)phenyl)urea]	50 to 100	50 to 100		
Cc1ccc(COCC(F)(F)F)c(N2C(=O)CS/C2=N\C(=O)Nc2ccc(-c3ncn(-c4ccc([S+]([O-])C(F)(F)F)cc4)n3)cc2F)c1 (stereo not drawn) [Compound J380, (Z)-1-(2-Fluoro-4-(1-(4-((trifluoromethyl)sulfinyl)phenyl)-1H-1,2,4-triazol-3-yl)phenyl)-3-(3-(5-methyl-2-((2,2,2-trifluoroethoxy)methyl)phenyl)-4-oxothiazolidin-2-ylidene)urea]	50 to 100	50 to 100		
COC(C)c1ccc(C)cc1N1C(=O)CS/C1=N\C(=O)Nc1ccc(-c2ccn(-c3ccc(C(F)(F)F)nn3)n2)cc1F (stereo not drawn) [Compound J381]			A (50-100)	A (50-100)
Cc1ccc(OCCC(F)(F)F)c(N2C(=O)CS/C2=N\C(=O)Nc2ccc(-c3ncn(-c4ccc([S+]([O-])C(F)(F)F)cc4)n3)cc2F)c1 (stereo not drawn) [Compound J382, (Z)-1-(2-Fluoro-4-(1-(4-((trifluoromethyl)sulfinyl)phenyl)-1H-1,2,4-triazol-3-yl)phenyl)-3-(3-(5-methyl-2-(3,3,3-trifluoropropoxy)phenyl)-4-oxothiazolidin-2-ylidene)urea]	50 to 100	50 to 100		
CCCc1ccc(N(C)C)cc1N1C(=O)CS/C1=N\C(=O)Nc1ccc(-c2ncn(-c3ccc([S+]([O-])C(F)(F)F)cc3)n2)cc1F (stereo not drawn) [Compound J383, (Z)-1-(3-(5-(Dimethylamino)-2-propylphenyl)-4-oxothiazolidin-2-ylidene)-3-(2-fluoro-4-(1-(4-((trifluoromethyl)sulfinyl)phenyl)-1H-1,2,4-triazol-3-yl)phenyl)urea]	50 to 100	50 to 100		
CC(C)c1cc(F)c(N(C)C)cc1N1C(=O)CS/C1=N\C(=O)Nc1ccc(-c2ncn(-c3ccc([S+]([O-])C(F)(F)F)cc3)n2)cc1F (stereo not drawn) [Compound J384, (Z)-1-(3-(5-(Dimethylamino)-4-fluoro-2-isopropylphenyl)-4-oxothiazolidin-2-ylidene)-3-(2-fluoro-4-(1-(4-((trifluoromethyl)sulfinyl)phenyl)-1H-1,2,4-triazol-3-yl)phenyl)urea]	50 to 100	50 to 100		
N#Cc1ccc(OCCC(F)(F)F)c(N2C(=O)CS/C2=N\C(=O)Nc2ccc(-c3ncn(-c4ccc([S+]([O-])C(F)(F)F)cc4)n3)cc2F)c1 (stereo not drawn) [Compound J385, (Z)-1-(3-(5-Cyano-2-(3,3,3-trifluoropropoxy)phenyl)-4-oxothiazolidin-2-ylidene)-3-(2-fluoro-4-(1-(4-((trifluoromethyl)sulfinyl)phenyl)-1H-1,2,4-triazol-3-yl)phenyl)urea]	50 to 100	50 to 100		
COC(c1ccc(C)cc1N1C(=O)CS/C1=N\C(=O)Nc1ccc(-c2ncn(-c3ccc([S+]([O-])C(F)(F)F)cc3)n2)cc1F)C(F)(F)F (stereo not drawn) [Compound J386, (Z)-1-(2-Fluoro-4-(1-(4-((trifluoromethyl)sulfinyl)phenyl)-1H-1,2,4-triazol-3-yl)phenyl)-3-(3-(5-methyl-2-(2,2,2-trifluoro-1-methoxyethyl)phenyl)-4-oxothiazolidin-2-ylidene)urea]	50 to 100	50 to 100		
Cc1ccc(OCCC(F)(F)F)c(N2C(=O)CS/C2=N\C(=O)Nc2ccc(-c3ncn(-c4ccc(SC(F)(F)F)cc4)n3)cc2)c1 [Compound J387, (Z)-1-(3-(5-Methyl-2-(3,3,3-trifluoropropoxy)phenyl)-4-oxothiazolidin-2-ylidene)-3-(4-(1-(4-((trifluoromethyl)thio)phenyl)-1H-1,2,4-triazol-3-yl)phenyl)urea]	50 to 100	50 to 100		
CCCc1ccc(N(C)C)cc1N1C(=O)CS/C1=N\C(=O)Nc1ccc(-c2ncn(-c3ccc(SC(F)(F)F)cc3)n2)cc1 [Compound J388, (Z)-1-(3-(5-(Dimethylamino)-2-propylphenyl)-4-oxothiazolidin-2-ylidene)-3-(4-(1-(4-((trifluoromethyl)thio)phenyl)-1H-1,2,4-triazol-3-yl)phenyl)urea]	50 to 100	50 to 100		
CC(C)c1cc(F)c(N(C)C)cc1N1C(=O)CS/C1=N\C(=O)Nc1ccc(-c2ncn(-c3ccc(SC(F)(F)F)cc3)n2)cc1 [Compound J389, (Z)-1-(3-(5-(Dimethylamino)-4-fluoro-2-isopropylphenyl)-4-oxothiazolidin-2-ylidene)-3-(4-(1-(4-((trifluoromethyl)thio)phenyl)-1H-1,2,4-triazol-3-yl)phenyl)urea]	50 to 100	50 to 100		
Cc1ccc(COCC(F)(F)F)c(N2C(=O)CS/C2=N\C(=O)Nc2ccc(-c3ccn(-c4ccc(C(F)(F)F)nn4)n3)cc2F)c1 [Compound J390]			A (50-100)	A (50-100)
CC(C)c1ccc(N(C)C)cc1N1C(=O)CS/C1=N\C(=O)Nc1ccc(-c2ccn(-c3ccc(C(F)(F)F)nn3)n2)cc1F [Compound J391]	50 to 100	50 to 100		
N#Cc1ccc(OCCC(F)(F)F)c(N2C(=O)CS/C2=N\C(=O)Nc2ccc(-c3ncn(-c4ccc(SC(F)(F)F)cc4)n3)cc2)c1 [Compound J392, (Z)-1-(3-(5-Cyano-2-(3,3,3-trifluoropropoxy)phenyl)-4-oxothiazolidin-2-ylidene)-3-(4-(1-(4-((trifluoromethyl)thio)phenyl)-1H-1,2,4-triazol-3-yl)phenyl)urea]	50 to 100	50 to 100		
Cc1ccc(COCC(F)(F)F)c(N2C(=O)CS/C2=N\C(=O)Nc2ccc(-c3ncn(-c4ccc(C(F)(F)F)nn4)n3)cc2F)c1 [Compound J394]			A (50-100)	A (50-100)
CC(=O)c1cc(-c2ncn(-c3ccc(OC(F)(F)F)cc3)n2)ccc1NC(=O)/N=C1\SCC(=O)N1c1cc(C)ccc1C(C)C [Compound J395, (Z)-1-(2-Acetyl-4-(1-(4-(trifluoromethoxy)phenyl)-1H-1,2,4-triazol-3-yl)phenyl)-3-(3-(2-isopropyl-5-methylphenyl)-4-oxothiazolidin-2-ylidene)urea]	50 to 100	50 to 100		
CC(=O)c1cc(-c2ncn(-c3ccc(OC(F)(F)F)cc3)n2)ccc1NC(=O)/N=C1\SCC(=O)N1c1cc(N(C)C)ccc1C(C)C [Compound J396, (Z)-1-(2-Acetyl-4-(1-(4-(trifluoromethoxy)phenyl)-1H-1,2,4-triazol-3-yl)phenyl)-3-(3-(5-(dimethylamino)-2-isopropylphenyl)-4-oxothiazolidin-2-ylidene)urea]	50 to 100	50 to 100		
COC(C)c1ccc(C)cc1N1C(=O)CS/C1=N\C(=O)Nc1ccc(-c2ncn(-c3ccc(OC(F)(F)F)cc3)n2)cc1C(C)=O (stereo not drawn) [Compound J397, (Z)-1-(2-Acetyl-4-(1-(4-(trifluoromethoxy)phenyl)-1H-1,2,4-triazol-3-yl)phenyl)-3-(3-(2-(1-methoxyethyl)-5-methylphenyl)-4-oxothiazolidin-2-ylidene)urea]	50 to 100	50 to 100		

Reference: patent US20230077362A1 (CORTEVA AGRISCIENCE LLC, priority 2019, published 2023)
